Test results: patent US11371040B2, “Endonuclease-barcoding” (priority 2015, dated 2022)

Key:
PC9 cells [1] = experiment: Mouse xenografts of multiplex CRISPR-barcoded PC9 cells; format: in vivo, SCID mice
Experimental: PC9 cells containing the EGFR-T790, KRAS-G12 and EML4-ALK barcodes were resuspended in PBS and subcutaneously inoculated in the left and right flank (2×10^6 cells per site) of male SCID mice (NCI). The size of the tumors was measured by caliper every 3-4 days. […] When the size of at least one of the tumors reached the arbitrary volume of 550 mm^3, the mice were sacrificed and gDNA was extracted from the tumors for qPCR analysis.
When at least one of the two tumors exceeded the arbitrary volume of 550 mm^3, the mice were sacrificed and gDNA was derived from the tumors. The frequency of the three different mutations in the tumor samples was measured by qPCR and normalized to the levels observed in the same batch of cells prior to injection in the mice.

PC9 cells [2] = experiment: EML4-ALK inversion barcoding in PC9 cells; format: cell-based
PC9 cells [3] = experiment: KRAS-G12 CRISPR-barcoding in PC9 cells; format: cell-based; settings: PC9 cells treated in the presence or absence of inhibitor
Description: CRISPR Barcoding sgRNA target sequences (See Sequence Listing—SEQ ID No 1-14) were designed using the CRISPR Design tool hosted by the Massachusetts Institute of Technology (see the website located at crispr.mit,edu) to minimize potential off-target effects. Oligos encoding the targeting sequence were then annealed and ligated into the pSpCas9(BB)-2A-Puro (Ran et al., 2013) vector digested with Bbsl (New England Biolabs). The sequence of the ssODNs (Integrated DNA Technologies) used for CRISPR/Cas9-mediated HDR, containing one missense/nonsense mutation coupled with different silent mutations, are provided in the sequence listing (SEQ ID No 15-29). The set of silent mutations is designed to enable PCR specificity and to avoid recognition by the corresponding sgRNA used to cleave the endogenous sequence. For each targeted locus, cells were co-transfected with 2 μg of the CRISPR/Cas9 plasmid and […] of either the control or the sense/nonsense ssODN (50 μM). […]
gDNA was extracted using the NucleoSpin Tissue kit (Macherey-Nagel). […] Primer specificity for each particular barcode was assessed. qPCR was performed from 100 ng of gDNA using SYBR Green (Life Technologies) on a 7900 HT Fast-Real-Time, a Q-PCR ABI PRISM 7500 or a QuantStudio Flex PCR System (Life Technologies). qPCR analysis was performed using the standard curve or the Pfaffl methods (Pfaffl, 2001). […]

MCF7 cells = experiment: TP53 CRISPR-barcoding (TP53-STOP vs TP53-WT barcode, qPCR) in MCF7 cells; format: cell-based; settings: relative to TP53-WT control barcode
Experimental: (§1) 293T (human embryonic kidney), DLD-1, HCT-116 (colorectal carcinoma), MCF-7 (breast cancer) were obtained from ATCC, PC9 cells (NSCLC) were obtained from ECACC-Sigma-Aldrich, Kelly cells (neuroblastoma) were a kind gift from Dr. C. Einvik. All cells were grown in Dulbecco's modified Eagle's Medium (Life technologies) except Kelly and PC-9 cells, grown in Roswell Park Memorial Institute medium (Life technologies), both supplemented with 10% fetal bovine serum (FBS, Life Technologies) and 0.6% penicillin/streptomycin (Life technologies). Cells were transfected with a Nucleofector II device (Lonza) using the Amaxa Nucleofector kit (Lonza) and electroporation program recommended by the manufacturer. 293T cells were transfected using polyethylenimine (Polysciences). The efficiency of each transfection was assessed in parallel using a GFP-containing plasmid. […]
(§2) gDNA was extracted using the NucleoSpin Tissue kit (Macherey-Nagel). […] Primer specificity for each particular barcode was assessed. qPCR was performed from 100 ng of gDNA using SYBR Green (Life Technologies) on a 7900 HT Fast-Real-Time, a Q-PCR ABI PRISM 7500 or a QuantStudio Flex PCR System (Life Technologies). qPCR analysis was performed using the standard curve or the Pfaffl methods (Pfaffl, 2001).

HCT-116 cells = experiment: TP53 CRISPR-barcoding (TP53-STOP vs TP53-WT barcode, qPCR) in HCT-116 cells; format: cell-based; settings: relative to TP53-WT control barcode
Experimental: as §1, §2

| SMILES | growth of the tumors (PC9 cells [1]; 25 mg/kg/day by gavage, from day 16 after injection) | proportion of all three mutations (EGFR-T790M, KRAS-G12D, EML4-ALK) in the tumors (PC9 cells [1]; 25 mg/kg/day, qPCR, normalized to cells prior to injection) | enrichment of EML4-ALK containing PC9 cells (PC9 cells [2]) | enrichment of KRAS-G12D cells (PC9 cells [3]) | fraction of cells containing the TP53-STOP barcode (MCF7 cells) | fraction of cells containing the TP53-STOP barcode (HCT-116 cells) |
| --- | --- | --- | --- | --- | --- | --- |
| COc1cc2ncnc(Nc3ccc(F)c(Cl)c3)c2cc1OCCCN1CCOCC1 [gefitinib] | initially arrested upon gefitinib treatment, but it eventually resumed after a few weeks | strongly increased | induced an enrichment | significant enrichment |  |  |
| COc1cccc2c1C(=O)c1c(O)c3c(c(O)c1C2=O)C[C@@](O)(C(=O)CO)C[C@@H]3O[C@H]1C[C@H](N)[C@H](O)[C@H](C)O1 [doxorubicin] |  |  |  |  | did not affect | did not affect |
| COc1ccc(C2=N[C@@H](c3ccc(Cl)cc3)[C@@H](c3ccc(Cl)cc3)N2C(=O)N2CCNC(=O)C2)c(OC(C)C)c1 (racemic) [Nutlin 3] |  |  |  |  | significantly increased | significantly increased |
